Measurements from patent US12357711B2, “PSMA binding dual mode radiotracer and therapeutic” (Technische Universität München, priority 2019, dated 2025).
Values joined by “and” are separate entries in the source; they are usually repeats but may differ in a detail not shown here. Identical values can stand only once.

Columns and labels:
[1] = target: T1, human serum albumin (Homo sapiens, UniProt P02768); assay: HSA binding on Chiralpak HSA column; assay type: in vitro ADME; details: Chiralpak HSA column (50 × 3 mm, 5 μm)
T1 construct: purchased H13H-2433
Method: The mobile phase (A: NH4OAc, 50 mM in water, pH 7 and B: isopropanol) was freshly prepared for each experiment and only used for one day. The column was kept at room temperature and each run was stopped after detection of the signal to reduce the acquisition time. All substances were dissolved in a 0.5 mg/ml concentration in 50% 2-propanol and 50% 50 mM pH 6.9 ammonium acetate buffer. […] All nine reference substances were injected consecutively to establish a non-linear regression with Origin Pro 2016G.

[2] = test system: patients; assay: Human biodistribution and uptake in tumor lesions (PET/CT, SUV); assay type: in vivo; details: clinical PET/CT
Method: Human biodistribution was estimated by analysing clinical ^18F-rhPSMA-7- and ^18F-rhPSMA-7.3-PET/CT exams in 47 and 32 patients, respectively.
The mean and maximum standardized uptake values (SUVmean/SUVmax) were determined for background (gluteal muscle), normal organs (salivary glands, blood pool, lung, liver, spleen, pancreas, duodenum, kidney, bladder, bone) and three representative tumor lesions. Tumor uptake was analyzed in 89 lesions (26 primary tumors/local recurrences, 23 bone, 38 lymph node and 2 visceral metastases) and 63 lesions (14 primary tumors/local recurrences, 30 bone, 18 lymph node and 1 visceral metastases) for ^18F-rhPSMA-7 and ^18F-rhPSMA-7.3, respectively.
Organ-background and Tumor-background ratios were calculated.

T1 sequence (P02768 25-609): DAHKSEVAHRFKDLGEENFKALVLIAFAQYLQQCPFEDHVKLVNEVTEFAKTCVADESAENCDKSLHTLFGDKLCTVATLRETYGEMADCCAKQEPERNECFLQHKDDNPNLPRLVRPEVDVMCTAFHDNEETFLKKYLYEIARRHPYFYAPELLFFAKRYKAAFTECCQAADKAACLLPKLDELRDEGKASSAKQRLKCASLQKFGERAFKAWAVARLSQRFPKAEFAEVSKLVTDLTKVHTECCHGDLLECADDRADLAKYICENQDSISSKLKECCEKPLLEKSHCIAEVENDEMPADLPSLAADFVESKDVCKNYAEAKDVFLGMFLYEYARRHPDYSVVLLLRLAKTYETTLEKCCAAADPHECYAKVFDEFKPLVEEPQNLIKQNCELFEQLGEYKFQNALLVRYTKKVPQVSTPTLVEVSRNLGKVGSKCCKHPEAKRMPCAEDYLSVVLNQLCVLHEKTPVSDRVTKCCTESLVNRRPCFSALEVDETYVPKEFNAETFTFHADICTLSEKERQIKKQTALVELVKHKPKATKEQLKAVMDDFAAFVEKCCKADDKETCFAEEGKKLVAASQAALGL

## [^19F][^natGa]D/L-Dap-R/S-DOTAGA-rhPSMA7 [rhPSMA7-rac]
[1]
  HSA Binding: 96.7%
[2]
  SUVmax bladder, max: 112.0
  SUVmax bladder, mean: 8.5
  SUVmax bladder, min: 0.5
  SUVmax bloodpool, max: 3.9
  SUVmax bloodpool, mean: 2.4
  SUVmax bloodpool, min: 1.6
  SUVmax duodenum, max: 32.7
  SUVmax duodenum, mean: 14.8
  SUVmax duodenum, min: 2.8
  SUVmax kidney, max: 75.2
  SUVmax kidney, mean: 44.8
  SUVmax kidney, min: 19.1
  SUVmax liver, max: 25.2
  SUVmax liver, mean: 9.5
  SUVmax liver, min: 4.5
  SUVmax lungs, max: 3.1
  SUVmax lungs, mean: 1.1
  SUVmax lungs, min: 0.5
  SUVmax pancreas, max: 7.9
  SUVmax pancreas, mean: 3.7
  SUVmax pancreas, min: 1.8
  SUVmax parotic gland, max: 42.3
  SUVmax parotic gland, mean: 23.8
  SUVmax parotic gland, min: 8.2
  SUVmax spleen, max: 21.0
  SUVmax spleen, mean: 11.8
  SUVmax spleen, min: 4.7
  SUVmax submandibular gland, max: 43.8
  SUVmax submandibular gland, mean: 27.0
  SUVmax submandibular gland, min: 10.1
  SUVmean bladder, max: 85.7
  SUVmean bladder, min: 0.3
  SUVmean bloodpool, max: 17.0
  SUVmean bloodpool, mean: 2.0
  SUVmean bloodpool, min: 1.1
  SUVmean duodenum, max: 23.9
  SUVmean duodenum, mean: 10.9
  SUVmean duodenum, min: 1.9
  SUVmean kidney, max: 54.7
  SUVmean kidney, mean: 32.4
  SUVmean kidney, min: 13.2
  SUVmean liver, max: 17.7
  SUVmean liver, mean: 7.0
  SUVmean liver, min: 3.2
  SUVmean lungs, max: 2.0
  SUVmean lungs, mean: 0.7
  SUVmean lungs, min: 0.3
  SUVmean pancreas, max: 5.5
  SUVmean pancreas, mean: 2.5
  SUVmean pancreas, min: 1.3
  SUVmean parotic gland, max: 32.7
  SUVmean parotic gland, mean: 16.9
  SUVmean parotic gland, min: 5.5
  SUVmean spleen, max: 17.1
  SUVmean spleen, mean: 9.1
  SUVmean spleen, min: 3.4
  SUVmean submandibular gland, max: 29.7
  SUVmean submandibular gland, mean: 19.6
  SUVmean submandibular gland, min: 7.0
[2]; gluteal muscle
  SUVmax background, max: 1.8
  SUVmax background, mean: 1.0
  SUVmax background, min: 0.6
  SUVmean background, max: 1.2
  SUVmean background, mean: 0.6
  SUVmean background, min: 0.4
[2]; non-diseased bone
  SUVmax bone, max: 3.1
  SUVmax bone, mean: 1.7
  SUVmax bone, min: 0.8
  SUVmean bone, max: 2.1
  SUVmean bone, mean: 1.1
  SUVmean bone, min: 0.6
[2]; tumor lesions
  SUVmax tumor, max: 167.2
  SUVmax tumor, mean: 27.6
  SUVmax tumor, min: 3.1
  SUVmean tumor, max: 115.7
  SUVmean tumor, min: 2.1
[2]; tumor lesions, listed as 18F-rhPSMA-7
  SUVmean tumor, mean: 20.0±20.2 and 20.0
[2]; listed as 18F-rhPSMA-7
  SUVmean bladder, mean: 6.3
